Legend:
[1] = tested on: skin reddening symptoms of Rosacea and other facial skin disorders; conditions: topical applications in a cosmetic lotion, applied as needed
Text: For example, using step 106 alone. Further embodiments of the present invention therefore comprise phenyl-epinephrine cosmetic skin lotion. The skin lotion is applied as needed by the user, e.g., just before going out in public.

[2] = tested on: non-mucous membrane skin tissues; conditions: topical application; phenyl-epinephrine strength of at least one percent; water-based gel
Text: The topical applications of phenyl-epinephrine used in steps 104, 106, and 108, can include the use of a skin lotion comprising phenyl-epinephrine in solution with a strength sufficient for transdermal absorption by non-mucous membrane skin tissues. Such phenyl-epinephrine is the only active ingredient, and it is preferably compounded with a water-based gel. Such gel provides for holding the phenyl-epinephrine in contact with a user's skin for a minimal residence time sufficient to induce vasoconstriction.

CNC[C@H](O)c1cccc(O)c1 [phenyl-epinephrine]
relief of skin reddening symptoms [1]: temporary relief of skin reddening symptoms
vasoconstriction [2]: produced the desired vasoconstriction

From patent US20050256204A1, “Topical phenyl-epinephrine Rosacea treatment” (priority 2004, published 2005)
